According to a compilation of properties of binary mixtures (doi:10.1021/jp3012602):

Assay: xn = mol fraction of the nth substance listed
Details: 101 kPa

CCC[N+]1(C)CCCC1.O=S(=O)([N-]S(=O)(=O)C(F)(F)F)C(F)(F)F + CCCCCCCCCCCCCC[P+](CCCCCC)(CCCCCC)CCCCCC.O=S(=O)([N-]S(=O)(=O)C(F)(F)F)C(F)(F)F
Details | electrical conductivity, 293.15 K [S/m] | electrical conductivity, 313.15 K [S/m] | electrical conductivity, 333.15 K [S/m] | electrical conductivity, 353.15 K [S/m] | viscosity, 293.15 K [mPa·s] | viscosity, 313.15 K [mPa·s] | viscosity, 333.15 K [mPa·s] | viscosity, 353.15 K [mPa·s]
x2 = 0 | 0.32 | 0.678 | 1.18 | 1.76 | – | 34.5 | 18.8 | 11.6
x2 = 0.5 | 0.0216 | 0.0565 | 0.12 | 0.223 | 322 | 117 | 51.8 | 26.7
x2 = 0.75 | 0.0113 | – | 0.0688 | 0.146 | 368 | – | 61.9 | 29.2

CCC[N+]1(C)CCCC1.O=S(=O)([N-]S(=O)(=O)C(F)(F)F)C(F)(F)F + CCCCCC[N+]1(C)CCCC1.O=S(=O)([N-]S(=O)(=O)C(F)(F)F)C(F)(F)F
x2 = 0
Details | electrical conductivity [S/m] | viscosity [mPa·s]
293.15 K | 0.32 | –
313.15 K | 0.678 | 34.4
333.15 K | 1.18 | 18.8

CCC[N+]1(C)CCCC1.O=S(=O)([N-]S(=O)(=O)C(F)(F)F)C(F)(F)F + CCCC[N+]1(C)CCCC1.O=S(=O)([N-]S(=O)(=O)C(F)(F)F)C(F)(F)F
Details | electrical conductivity, 293.15 K [S/m] | electrical conductivity, 313.15 K [S/m] | electrical conductivity, 333.15 K [S/m] | electrical conductivity, 353.15 K [S/m] | viscosity, 293.15 K [mPa·s] | viscosity, 313.15 K [mPa·s] | viscosity, 333.15 K [mPa·s] | viscosity, 353.15 K [mPa·s]
x2 = 0 | 0.32 | 0.678 | – | 1.76 | – | 34.4 | – | 11.6
x2 = 0.25 | – | 0.509 | 0.893 | 1.39 | – | 35.9 | 19.2 | 11.8
x2 = 0.5 | 0.298 | 0.61 | 1.03 | – | 87 | 37.9 | 20 | –
x2 = 0.75 | 0.261 | 0.569 | – | 1.57 | 92 | 39.5 | – | 12.5

CCC[N+]1(C)CCCC1.O=S(=O)([N-]S(=O)(=O)C(F)(F)F)C(F)(F)F + CCC[N+]1(C)CCCC1.N#C[N-]C#N
x2 = 0
Details | electrical conductivity [S/m] | viscosity [mPa·s]
293.15 K | 0.32 | –
333.15 K | 1.18 | 18.8

CCCCCCCCCCCCCC[P+](CCCCCC)(CCCCCC)CCCCCC.O=S(=O)([N-]S(=O)(=O)C(F)(F)F)C(F)(F)F + CCC[N+]1(C)CCCC1.O=S(=O)([N-]S(=O)(=O)C(F)(F)F)C(F)(F)F
x1 = 1
Details | electrical conductivity [S/m] | viscosity [mPa·s]
293.15 K | 0.0072 | –
313.15 K | 0.0216 | 150
333.15 K | 0.0473 | 63
353.15 K | 0.0913 | 31.1

CCCCCC[N+]1(C)CCCC1.O=S(=O)([N-]S(=O)(=O)C(F)(F)F)C(F)(F)F + CCC[N+]1(C)CCCC1.O=S(=O)([N-]S(=O)(=O)C(F)(F)F)C(F)(F)F
Details | electrical conductivity, 293.15 K [S/m] | electrical conductivity, 313.15 K [S/m] | electrical conductivity, 333.15 K [S/m] | electrical conductivity, 353.15 K [S/m] | viscosity, 293.15 K [mPa·s] | viscosity, 313.15 K [mPa·s] | viscosity, 333.15 K [mPa·s] | viscosity, 353.15 K [mPa·s]
x1 = 0.25 | 0.268 | – | 1.02 | 1.54 | 89 | – | 20.6 | 12.6
x1 = 0.5 | 0.185 | 0.417 | 0.766 | – | 102 | 42.9 | 22.2 | –
x1 = 0.75 | 0.111 | 0.251 | 0.463 | 0.724 | 116 | 47.3 | 23.8 | 13.9
x1 = 1 | 0.118 | 0.272 | 0.525 | 0.86 | – | 52.7 | 25.9 | 14.9
